These results are taken from patent US6828106B2, “Methods and compositions using coiled binding partners” (Cyclacel Limited, priority 1999, dated 2004).

As a reminder, the pIC50 is −log10 of the IC50, conventionally taken in molar units.

Test [1] deals with T1, TEV protease (Tobacco etch virus, UniProt P04517).
T1 construct: Proteolytic cleavage was initiated by the addition of TEV protease (20U, Gibco Life Technologies); histidine tag; purchased Gibco Life Technologies
The experiment in a line: TEV protease FRET assay with homodimer-forming reporter peptide. Type of test: biochemical. The following applies: 0.05-100 mM iodacetamide added prior to TEV protease; 6 μM reporter peptide, 30° C.; FIG. 9; read-out: IC50 value (TEV protease inhibitor iodacetamide) as determined by FRET analysis. As to the method: (§1) TEV protease activity and inhibition of TEV protease activity was determined by using a peptide capable of forming a homodimer, wherein homodimer formation is decreased following TEV protease cleavage of the peptide, according to the following method.
For FRET analysis the reporter peptide (KGR MRCLEDR VENLYSQ SYHLENE VARLRRL VGELAAK) (SEQ ID NO: 32) was labeled with fluorescein or rhodamine. The labeled peptides were incubated at a total peptide concentration of 6 μM (6:1 ratio, R:F) in 50 mM Tris pH 8, and 0.5 mM EDTA, and 1 mM DTT at 30° C. for 15 minutes in a total volume of 100 μl. Proteolytic cleavage was initiated by the addition of TEV protease (20U, Gibco Life Technologies), and monitored during the time course of the reaction by measuring the emission of fluorescein (excitation 485 nm, emission 520 nm) over time. Initial rates of change of fluorescein emission were determined for the linear portion of the reaction.
(§2) The activity of the TEV protease inhibitor iodacetamide was determined by FRET or FP assays performed as described above in the absence of iodacetamide or in the presence of 0.05-100 mM iodacetamide added prior to the addition of TEV protease. The results of these experiments are presented in FIG. 9 (FRET assay) and FIG. 11 (FP assay).

Test [2] deals with T1, TEV protease. The experiment in a line: TEV protease FP assay with homodimer-forming reporter peptide. It counts as biochemical. The following applies: 0.05-100 mM iodacetamide added prior to TEV protease; 6 μM reporter peptide, 30° C.; read-out: IC50 value (TEV protease inhibitor iodacetamide) as determined by FP analysis. As to the method:
as §1
For FP analysis the reporter peptide (sequence recited above) was labeled with fluorescein or with biotin. The labeled peptides were incubated at a total peptide concentration of 6 μM (6:1 ratio, biotin:F) in 50 mM Tris, pH 8, 0.5 mM EDTA, 0.1 mg/ml BSA and 1 mM DTT at 30° C. for 5 minutes in a total volume of 100 μl. Proteolytic cleavage was initiated by the addition of TEV protease (20U), and monitored during the reaction time course by measuring the polarization of fluorescein (excitation 485 nm, emission 520 nm) over time. Initial rates of change of fluorescein polarization were determined for the linear portion of the reaction.
as §2

pIC50: −log10 of the molar value.

T1 sequence (P04517 2038-2279): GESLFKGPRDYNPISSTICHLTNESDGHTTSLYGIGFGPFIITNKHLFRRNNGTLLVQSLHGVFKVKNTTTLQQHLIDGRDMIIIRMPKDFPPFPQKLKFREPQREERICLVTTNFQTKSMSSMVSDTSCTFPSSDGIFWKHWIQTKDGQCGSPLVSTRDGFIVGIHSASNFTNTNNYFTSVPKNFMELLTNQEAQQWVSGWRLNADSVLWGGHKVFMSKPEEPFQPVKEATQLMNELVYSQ

Consider `NC(=O)CI` [iodacetamide, reference compound], for which the pIC50 at TEV protease [1] was 3.05; on TEV protease [2], 3.00.
